From patent publication US5665764A, “Tricyclic inhibitors of matrix metalloproteinases” (Warner-Lambert Company, priority 1995, dated 1997)

How the values were obtained:
[1] = target: GCD (recombinant gelatinase A catalytic domain); assay: Inhibition of thiopeptolide substrate conversion by GCD; format: biochemical; conditions: thiopeptolide substrate Ac-Pro-Leu-Gly-thioester-Leu-Leu-Gly-OEt
Source text: Matrix metalloproteinases share high sequence hemology and the catalytic domains of each of the MMPs can be identified by sequence alignment. The gene for the catalytic domain of stromelysin-1, SCD, was constructed by removing the propeptide and C-terminal domain (Ye Q.-Z., Johnson L. L, Hupe D. J., and Baragi V., "Purification and Characterization of the Human Stromelysin Catalytic Domain Expressed in Escherichia coli", Biochemistry,1992;31:11231-11235). The gelatinase A catalytic domain, GCD, was similarly constructed with the additional removal of the fibronectin-like insert which interrupts the catalytic domain (Ye Q.-Z., Johnson L. L., Yu A. E., and Hupe D., "Reconstructed 19 kDa Catalytic Domain of Gelatinase A is an Active Proteinase", Biochemistry, 1995;34:4702-4708). Both truncated proteins cleave synthetic peptide substrates and the natural substrates proteoglycan and gelatin in a manner similar to the full-length enzymes and can be used to identify matrix metalloproteinase inhibitors.
Experiments were carried out with both the full-length enzymes and the catalytic domains. […] IC50 values were determined using a thiopeptolide substrate, Ac-Pro-Leu-Gly-thioester-Leu-Leu-Gly-OEt (Ye Q.-Z., Johnson L. L., Hupe D. J., and Baragi V., "Purification and Characterization of the Human Stromelysin Catalytic Domain Expressed in Escherichia coli", Biochemistry,1992;31:11231-11235). […]

[2] = system: experimental allergic encephalomyelitis (EAE); assay: EAE Lewis rat acute model, Protocol 1 (daily oral dosing); format: in vivo, female Lewis rats
Experimental: (§1) The activity of Example 2 in suppressing the inflammatory disease associated with EAE was tested using the Lewis rat acute model. Female Lewis rats were purchased from Harlan Sprague-Dawley (Indianapolis, Ind.) and were used at 8 to 10 weeks of age. Active EAE was induced by injection of 0.05 mL emulsion of myelin basic protein (MBP) with complete Freund's adjuvant (CFA), containing 25 μg guinea pig MBP and 100 μg Mycobacterium butyricum (Difco Laboratories, Detroit, Mich.) into one hind footpad. Immunized rats were observed daily for clinical signs of EAE and scored as follows: 0, no symptoms; 1, loss of tail tonicity; 2, paresis; 3, hind limb paralysis, often accompanied by incontinence; and 4, death. Formalin-fixed brain slice sections were stained with hematoxylin-eosin and evaluated microscopically for perivascular and parenchymal infiltration. Compound was administered by gavage as a solution in sterile saline in a volume of 500 μL. The dose of 50 mg/kg typically required 7.5 mg of compound per rat. Several different protocols were used to define the efficacy and timing retirements for potency.
Protocol 1: Compound was administered daily at 50 mg/kg beginning on Day 0 and continuing through Day 14, with MBP in CFA administered on Day 0 also. […] The percentage of animals responding is also very high with 100% of treated animals-showing either a total inhibition of symptoms (80%) or reduction of symptoms (20%). N=5 for all groups.

[3] = system: experimental allergic encephalomyelitis (EAE); assay: EAE Lewis rat acute model, Protocol 2 (alternate day dosing); format: in vivo, female Lewis rats; conditions: for Effect on EAE Rats (≥ Paresis/Total): CFA + MBP, PBS control 5/7
Experimental: as §1
Protocol 2: To determine whether less frequent dosing or dosing at lower levels was still effective at suppressing EAE, compound was administered at either 50 mg/kg or at 10 mg/kg on Day 0 and on alternate days through Day 14. […] Controls run in parallel included CFA only and MBP in CFA. N=4 for treatment groups. N=8 for controls.

[4] = system: leukocyte migration across the blood-brain barrier; assay: Histology of brain slices from EAE rats, Protocol 1; format: in vivo, Lewis rat; conditions: 50 mg/kg daily
Experimental: as §1

[5] = system: Mycobacterium footpad edema; assay: Mycobacterium footpad edema assay (MFE); format: in vivo, male Wistar rats; conditions: daily, third day, statistically significant
Experimental: The activity of Example 2 as a general inhibitor of inflammation was tested using the Mycobacterium footpad edema assay (MFE) in Wistar rats. Compound was administered daily by gavage at 2 mg/kg, 10 mg/kg, or 50 mg/kg.
Male outbred Wistar rats (110-125 g, Charles River Labs, Portage, Mich.) were used in this study. Rats were housed for a minimum of 1 week before use. Food and water were supplied ad libitum. Foot pad edema was induced following the method described by Martel R. R. and Klicius J., "Comparisons in rats of the anti-inflammatory and gastric irritant effects of etodolac with several clinically effective antiinflammatory drugs", Agents and Actions, 1982;12:295. Briefly, male Wistar rats were injected subcutaneously into the right hind footpad with 0.1 mL of 5 mg/mL suspension of killed and dried Mycobacterium butyricum (Difco, Detroit, Mich.) in liquid paraffin. Compound was suspended in 0.5% hydroxypropylmethylcellulose (HPMC) containing 0.2% Tween-80 and administered orally 1 hour before injection. Subsequent doses of the compound were given 24 and 48 hours after the Mycobacterium. Control animals were given vehicle alone. Swelling was assessed on the third day by subtracting the initial volume (determined immediately following the Mycobacterium injection) from the final volume of the treated paw. Paw volume was determined by mercury plethysmography. The percent inhibition of edema achieved in each compound-treated group was determined by comparison with swelling in the vehicle-treated group and the ID50 values were determined by regression analysis. Statistical significance between experimental groups was evaluated using a Student's t-test.

[6] = Plasma concentrations; format: in vivo
[7] = system: experimental allergic encephalomyelitis (EAE); conditions: dose dependent; Gijbels et al. 1994; cited from earlier work
[8] = system: bovine nasal and pig articular cartilage; conditions: Andrews et al. 1992; Ellis et al. 1994; cited from earlier work

**Q.** Which IC50 [1] does the source give for `O=C(O)CCC(=NO)c1ccc2oc3ccccc3c2c1` [Example 2, 4-Dibenzofuran-2-yl-4-hydroximino-butyric acid] here?
**A.** 40 nM

**Q.** What about the “effect on average scores for the treated group” value ([2]; 50 mg/kg daily, Day 0-14) of the same molecule?
**A.** substantially reduced the average scores

**Q.** And the “treated animals showing either a total inhibition of symptoms or reduction of symptoms” value ([2]; 50 mg/kg daily, Day 0-14, N=5)?
**A.** 100%

**Q.** What about the “Day of Peak” value ([2]; CFA + MBP, 50 mg/kg daily oral from Day 0) of the same molecule?
**A.** 12 days

**Q.** And the “Clinical Grade at Peak of Disease Expression” value ([2]; CFA + MBP, 50 mg/kg daily oral from Day 0, N=5, SD 1.22, PBS control 3.0)?
**A.** 1.0

**Q.** And the “Effect on EAE Rats (≥ Paresis/Total)” value ([2]; CFA + MBP, 50 mg/kg daily oral from Day 0, PBS control 5/5)?
**A.** 1/5

**Q.** And the “Effect on EAE Rats (≥ Paresis/Total)” value ([2]; CFA without MBP, 50 mg/kg daily oral from Day 0)?
**A.** 0/5

**Q.** What about the “Clinical Grade at Peak of Disease Expression” value ([2]; CFA without MBP, 50 mg/kg daily oral from Day 0, N=5, SD 0) of the same molecule?
**A.** 0

**Q.** What about the “Effect on EAE Rats (≥ Paresis/Total)” value ([3]; 10 mg/kg alternate days) of the same molecule?
**A.** 0/4

**Q.** What about the “Effect on EAE Rats (≥ Paresis/Total)” value ([3]; 50 mg/kg alternate days) of the same molecule?
**A.** 0/4

**Q.** What about the “decrease in disease severity, significance” value ([3]; Day 15, p≤0.01, 10 or 50 mg/kg alternate days) of the same molecule?
**A.** highly significant

**Q.** What about the CNS inflammation [4] of the same molecule?
**A.** little CNS inflammation

**Q.** And the cuff formation [4]?
**A.** no cuff formation

**Q.** And the “leukocyte migration across the blood-brain barrier” value [4]?
**A.** completely prevented

**Q.** What about the “% Inhibition of Swelling” value ([5]; 2 mg/kg oral) of the same molecule?
**A.** 23%

**Q.** And the “% Inhibition of Swelling” value ([5]; 10 mg/kg oral)?
**A.** 27%

**Q.** And the “% Inhibition of Swelling” value ([5]; 50 mg/kg oral)?
**A.** 40%

**Q.** What about the “Cmax and AUC(0-b 4) versus dose” value ([6]; 2, 10, 50 mg/kg) of the same molecule?
**A.** increase proportionately with dose

**Q.** And the “bioavailability versus effective range in vitro” value ([6]; effective range of gelatinase A and stromelysin-1 inhibition in the in vitro assays)?
**A.** well in excess of the effective range of gelatinase A and stromelysin-1 inhibition

**Q.** For `CNC(=O)[C@H](Cc1c[nH]c2ccccc12)NC(=O)[C@@H](CC(=O)NO)CC(C)C` [GM6001], which “clinical expression/development of EAE” value [7] is on record?
**A.** suppressed the development or reversed the clinical expression

**Q.** Which “formation of collagen fragments” value [8] does the source give for “TIMP-1: natural endogenous inhibitors of MMPs (TIMPs)” here?
**A.** prevented the formation of collagen fragments
